{"source": "paper PMC2248166", "about": "“Quantitative peptide binding motifs for 19 human and mouse MHC class I molecules derived using positional scanning combinatorial peptide libraries” (Immunome Research, 2008)", "note": "Where a SMILES comes first, the peptide text is derived from it."}
{"target": "HLA B*0801 (Homo sapiens, UniProt P01889, A93T/A95T/D138N/E176V/E187T/K202T/Q94N/R180D/S35A/V36M/Y33D/Y91F)", "assay": "biochemical", "type": "binding", "units": {"IC50": "nM"}}
{"smiles": "CC[C@H](C)[C@H](NC(=O)[C@H](CO)NC(=O)[C@H](Cc1c[nH]cn1)NC(=O)[C@H](Cc1ccc(O)cc1)NC(=O)[C@H](CCCNC(=N)N)NC(=O)[C@@H]1CCCN1C(=O)[C@@H](N)Cc1ccccc1)C(=O)N[C@@H](CCC(=O)O)C(=O)N[C@@H](CC(C)C)C(=O)O", "note": "[3102.0626] (H-FPRYHSIEL-OH)", "IC50": 0.49}
{"smiles": "CC[C@H](C)[C@H](NC(=O)[C@H](Cc1ccc(O)cc1)NC(=O)[C@@H](NC(=O)[C@@H](N)CO)C(C)C)C(=O)N[C@@H](CCCNC(=N)N)C(=O)N1CCC[C@H]1C(=O)N[C@H](C(=O)N[C@@H](CO)C(=O)N[C@@H](CC(C)C)C(=O)O)[C@@H](C)O", "note": "[3102.0627] (H-SVYIRPTSL-OH)", "IC50": 11}
{"smiles": "CC[C@H](C)[C@H](NC(=O)[C@@H](N)CO)C(=O)N[C@@H](CC(N)=O)C(=O)N[C@H](C(=O)N[C@@H](CCCCN)C(=O)N[C@@H](Cc1c[nH]cn1)C(=O)N[C@H](C(=O)N[C@@H](CO)C(=O)N[C@H](C(=O)O)C(C)C)[C@@H](C)O)C(C)C", "note": "[3102.0630] (H-SINVKHTSV-OH)", "IC50": 13}
{"smiles": "CC[C@H](C)[C@H](NC(=O)[C@H](CCSC)NC(=O)[C@@H](NC(=O)[C@H](CCCCN)NC(=O)[C@H](CC(C)C)NC(=O)[C@@H](N)CO)[C@@H](C)CC)C(=O)N[C@@H](CCC(N)=O)C(=O)N[C@@H](CO)C(=O)N[C@@H](CCSC)C(=O)O", "note": "[3102.0631] (H-SLKIMIQSM-OH)", "IC50": 2.5}
{"smiles": "CC[C@H](C)[C@H](NC(=O)[C@H](Cc1c[nH]cn1)NC(=O)[C@H](Cc1ccccc1)NC(=O)[C@H](CC(C)C)NC(=O)[C@H](CC(N)=O)NC(=O)[C@@H]1CCCN1C(=O)[C@H](CC(C)C)NC(=O)[C@@H](N)CCCNC(=N)N)C(=O)N[C@@H](CC(C)C)C(=O)O", "note": "[3102.0632] (H-RLPNLFHIL-OH)", "IC50": 69}
{"smiles": "CC(C)C[C@H](NC(=O)[C@H](CO)NC(=O)[C@@H]1CCCN1C(=O)[C@H](CCCNC(=N)N)NC(=O)[C@H](CCCCN)NC(=O)[C@H](CO)NC(=O)[C@H](CC(C)C)NC(=O)[C@H](CC(C)C)NC(=O)[C@@H](N)C(C)C)C(=O)O", "note": "[3102.0634] (H-VLLSKRPSL-OH)", "IC50": 78}
{"smiles": "CC[C@H](C)[C@H](NC(=O)[C@H](CCCCN)NC(=O)[C@H](CC(C)C)NC(=O)[C@@H](NC(=O)[C@H](Cc1c[nH]cn1)NC(=O)[C@H](CCCCN)NC(=O)[C@H](CCCNC(=N)N)NC(=O)[C@H](CC(C)C)NC(=O)[C@@H](N)CC(C)C)[C@@H](C)O)C(=O)O", "note": "[3102.0636] (H-LLRKHTLKI-OH)", "IC50": 21}
{"smiles": "CC(C)C[C@H](NC(=O)[C@H](CCCNC(=N)N)NC(=O)[C@H](CCCCN)NC(=O)[C@H](CC(N)=O)NC(=O)[C@H](CCCNC(=N)N)NC(=O)[C@H](CC(C)C)NC(=O)[C@H](CCCNC(=N)N)NC(=O)[C@H](CCCNC(=N)N)NC(=O)[C@@H](N)Cc1c[nH]cn1)C(=O)O", "note": "[3102.0641] (H-HRRLRNKRL-OH)", "IC50": 28}
{"smiles": "CC[C@H](C)[C@H](NC(=O)[C@H](CC(N)=O)NC(=O)[C@H](CCCCN)NC(=O)[C@H](Cc1ccccc1)NC(=O)[C@H](CCCNC(=N)N)NC(=O)[C@H](CC(N)=O)NC(=O)[C@H](CCSC)NC(=O)[C@H](CC(C)C)NC(=O)[C@@H](N)Cc1ccc(O)cc1)C(=O)O", "note": "[3102.0642] (H-YLMNRFKNI-OH)", "IC50": 1.3}
{"smiles": "CC(C)C[C@H](NC(=O)[C@@H](NC(=O)[C@H](CC(C)C)NC(=O)[C@H](CCCCN)NC(=O)[C@H](CCCNC(=N)N)NC(=O)[C@H](Cc1ccccc1)NC(=O)[C@H](Cc1ccccc1)NC(=O)[C@@H]1CCCN1C(=O)[C@@H](N)Cc1ccc(O)cc1)C(C)C)C(=O)O", "note": "[3102.0643] (H-YPFFRKLVL-OH)", "IC50": 5.9}
{"smiles": "CSCC[C@H](N)C(=O)N[C@@H](CC(C)C)C(=O)N[C@@H](CC(C)C)C(=O)N[C@@H](CS)C(=O)N[C@@H](Cc1c[nH]cn1)C(=O)N[C@@H](CCCCN)C(=O)N1CCC[C@H]1C(=O)N[C@H](C(=O)N[C@@H](CC(C)C)C(=O)O)[C@@H](C)O", "note": "[3102.0644] (H-MLLCHKPTL-OH)", "IC50": 19}
{"smiles": "CC[C@H](C)[C@H](NC(=O)[C@H](CCC(=O)O)NC(=O)[C@H](CCCNC(=N)N)NC(=O)[C@H](CC(C)C)NC(=O)[C@@H](N)CO)C(=O)N[C@@H](CO)C(=O)N[C@@H](CC(N)=O)C(=O)N[C@H](C(=O)N[C@H](C(=O)O)C(C)C)[C@@H](C)CC", "note": "[3102.0645] (H-SLREISNIV-OH)", "IC50": 10}
{"smiles": "CC(C)C[C@H](NC(=O)[C@H](CO)NC(=O)[C@@H](NC(=O)[C@H](CC(C)C)NC(=O)[C@H](CO)NC(=O)[C@H](CCC(N)=O)NC(=O)[C@H](CCCCN)NC(=O)[C@H](CC(N)=O)NC(=O)[C@@H](N)Cc1ccc(O)cc1)C(C)C)C(=O)O", "note": "[3102.0646] (H-YNKQSLVSL-OH)", "IC50": 30}
{"smiles": "CC[C@H](C)[C@H](NC(=O)[C@@H](N)CS)C(=O)N[C@@H](CCCCN)C(=O)N[C@@H](CO)C(=O)N[C@@H](Cc1c[nH]cn1)C(=O)N[C@@H](CO)C(=O)N[C@H](C(=O)N[C@@H](CO)C(=O)N[C@@H](CC(C)C)C(=O)O)C(C)C", "note": "[3102.0647] (H-CIKSHSVSL-OH)", "IC50": 2.3}
{"smiles": "CC[C@H](C)[C@H](NC(=O)[C@@H](N)CC(N)=O)C(=O)N[C@@H](CCSC)C(=O)N1CCC[C@H]1C(=O)N[C@@H](CC(C)C)C(=O)N[C@@H](Cc1ccccc1)C(=O)N1CCC[C@H]1C(=O)N[C@H](C(=O)N[C@@H](Cc1ccccc1)C(=O)O)[C@@H](C)O", "note": "[3102.0648] (H-NIMPLFPTF-OH)", "IC50": 48}
{"smiles": "CSCC[C@H](NC(=O)[C@H](Cc1ccccc1)NC(=O)[C@H](CCSC)NC(=O)[C@@H](N)CO)C(=O)N[C@@H](CO)C(=O)N[C@@H](CC(C)C)C(=O)N[C@@H](CC(C)C)C(=O)N1CCC[C@H]1C(=O)N[C@@H](C)C(=O)O", "note": "[3102.0656] (H-SMFMSLLPA-OH)", "IC50": 56}
{"smiles": "CC[C@H](C)[C@H](NC(=O)[C@H](C)N)C(=O)N[C@@H](CCCCN)C(=O)N[C@@H](CC(C)C)C(=O)NCC(=O)N[C@@H](Cc1ccccc1)C(=O)N[C@@H](CCCCN)C(=O)N[C@@H](CO)C(=O)N[C@@H](CC(C)C)C(=O)O", "note": "[3102.0664] (H-AIKLGFKSL-OH)", "IC50": 41}
{"smiles": "CC[C@H](C)[C@H](NC(=O)[C@H](CCCNC(=N)N)NC(=O)[C@H](Cc1ccc(O)cc1)NC(=O)[C@H](CCCCN)NC(=O)[C@H](CC(N)=O)NC(=O)[C@@H](N)CO)C(=O)N[C@@H](CCCCN)C(=O)N[C@@H](CO)C(=O)N[C@H](C(=O)O)C(C)C", "note": "[3102.0666] (H-SNKYRIKSV-OH)", "IC50": 2.7}
{"smiles": "CC(C)C[C@H](NC(=O)[C@@H](N)CC(=O)O)C(=O)N[C@@H](CCCNC(=N)N)C(=O)N[C@@H](CCCNC(=N)N)C(=O)N[C@@H](CCCNC(=N)N)C(=O)N[C@@H](Cc1ccccc1)C(=O)N[C@@H](CC(=O)O)C(=O)N[C@H](C(=O)N[C@@H](Cc1ccccc1)C(=O)O)[C@@H](C)O", "note": "[3102.0667] (H-DLRRRFDTF-OH)", "IC50": 1.6}
{"smiles": "CC[C@H](C)[C@H](NC(=O)[C@@H]1CCCN1C(=O)[C@H](CCCCN)NC(=O)[C@@H](NC(=O)[C@H](CCCNC(=N)N)NC(=O)[C@H](CC(N)=O)NC(=O)[C@H](CCCNC(=N)N)NC(=O)[C@H](CCSC)NC(=O)[C@@H](N)CCSC)[C@@H](C)O)C(=O)O", "note": "[3102.0668] (H-MMRNRTKPI-OH)", "IC50": 1.5}
{"smiles": "CSCC[C@H](NC(=O)[C@H](CC(C)C)NC(=O)[C@H](CCCNC(=N)N)NC(=O)[C@H](CCCCN)NC(=O)[C@H](CCSC)NC(=O)[C@H](CCSC)NC(=O)[C@@H](N)CCSC)C(=O)N[C@@H](Cc1ccccc1)C(=O)N[C@@H](CCC(=O)O)C(=O)O", "note": "[3102.0672] (H-MMMKRLMFE-OH)", "IC50": 75}
{"smiles": "CC(C)C[C@H](NC(=O)[C@@H](N)CC(C)C)C(=O)N[C@@H](CCCCN)C(=O)N[C@@H](Cc1ccccc1)C(=O)N[C@@H](CCCNC(=N)N)C(=O)N[C@H](C(=O)N[C@@H](CCC(=O)O)C(=O)N[C@@H](CO)C(=O)N[C@@H](CS)C(=O)O)C(C)C", "note": "[3102.0675] (H-LLKFRVESC-OH)", "IC50": 74}
{"smiles": "CC[C@H](C)[C@H](NC(=O)[C@H](CCCCN)NC(=O)[C@@H](NC(=O)[C@H](CCCCN)NC(=O)[C@@H](NC(=O)[C@@H](N)CC(=O)O)[C@@H](C)CC)[C@@H](C)O)C(=O)N[C@@H](CCSC)C(=O)N[C@H](C(=O)N[C@@H](CC(C)C)C(=O)O)C(C)C", "note": "[3102.0683] (H-DIKTKIMVL-OH)", "IC50": 73}
{"smiles": "CSCC[C@H](NC(=O)[C@H](CO)NC(=O)[C@H](Cc1c[nH]cn1)NC(=O)[C@H](CCCCN)NC(=O)[C@@H](NC(=O)[C@H](Cc1ccc(O)cc1)NC(=O)[C@H](CCSC)NC(=O)[C@@H](N)Cc1ccccc1)[C@@H](C)O)C(=O)N[C@@H](CC(C)C)C(=O)O", "note": "[3102.0684] (H-FMYTKHSML-OH)", "IC50": 0.2}
{"smiles": "CC[C@H](C)[C@H](NC(=O)[C@H](CCCCN)NC(=O)[C@H](CC(C)C)NC(=O)[C@@H](N)Cc1ccccc1)C(=O)N[C@@H](CCCCN)C(=O)N[C@H](C(=O)N[C@H](C(=O)N[C@@H](C)C(=O)N[C@@H](C)C(=O)O)[C@@H](C)O)C(C)C", "note": "[3102.0685] (H-FLKIKVTAA-OH)", "IC50": 15}
{"smiles": "CC(C)C[C@H](NC(=O)[C@@H](N)Cc1ccc(O)cc1)C(=O)N[C@@H](CCCNC(=N)N)C(=O)N[C@H](C(=O)N[C@@H](CCCCN)C(=O)N1CCC[C@H]1C(=O)N[C@@H](C)C(=O)N[C@@H](CO)C(=O)N[C@@H](C)C(=O)O)[C@@H](C)O", "note": "[3102.0686] (H-YLRTKPASA-OH)", "IC50": 1.5}
{"smiles": "CC[C@H](C)[C@H](NC(=O)[C@@H]1CCCN1C(=O)[C@H](CCCNC(=N)N)NC(=O)[C@H](Cc1c[nH]cn1)NC(=O)[C@H](CCCNC(=N)N)NC(=O)[C@H](CCCCN)NC(=O)[C@H](CC(N)=O)NC(=O)[C@@H](N)CO)C(=O)NCC(=O)O", "note": "[3102.0687] (H-SNKRHRPIG-OH)", "IC50": 34}
{"smiles": "CC[C@H](C)[C@H](NC(=O)[C@H](Cc1c[nH]cn1)NC(=O)[C@H](Cc1ccccc1)NC(=O)[C@H](CCCNC(=N)N)NC(=O)[C@@H](NC(=O)[C@@H](N)CO)[C@@H](C)CC)C(=O)N[C@@H](CCCCN)C(=O)N[C@@H](CCC(=O)O)C(=O)N[C@@H](CC(C)C)C(=O)O", "note": "[3102.0695] (H-SIRFHIKEL-OH)", "IC50": 0.45}
{"smiles": "CC(C)C[C@H](NC(=O)[C@H](CO)NC(=O)CNC(=O)[C@H](Cc1ccccc1)NC(=O)[C@@H](NC(=O)[C@H](CCC(N)=O)NC(=O)[C@H](CCCCN)NC(=O)[C@H](Cc1ccccc1)NC(=O)[C@@H](N)Cc1ccccc1)[C@@H](C)O)C(=O)O", "note": "[3102.0697] (H-FFKQTFGSL-OH)", "IC50": 0.74}
{"smiles": "CSCC[C@H](NC(=O)[C@H](CCC(N)=O)NC(=O)[C@H](CCCCN)NC(=O)[C@@H](NC(=O)[C@H](CCC(N)=O)NC(=O)[C@@H]1CCCN1C(=O)[C@@H](N)CC(N)=O)[C@@H](C)O)C(=O)N[C@@H](C)C(=O)N[C@@H](Cc1ccccc1)C(=O)O", "note": "[3102.0698] (H-NPQTKQMAF-OH)", "IC50": 14}
